Assay results reported in US7767240B2, “Microbiological control in poultry processing” (priority 2001, dated 2010).

Experiments:
Assay in all cases: Individual bacteria count per bird at pH 8 (Example 3)
Type in all cases: cell-based
[1] = tested on: Pseudomonas aeruginosa ATCC 15442; settings: 25 birds per treatment, control 2783
Procedure: (§1) This group of tests was conducted to determine the effect of Clorox® bleach, Aquatize® biocide, and 1,3-dibromo-5,5-dimethylhydantoin (DBDMH) on carcass bacteria (Escherichia coli field strain) residual after 1,5-hour in a chill tank “soup”. Tests were conducted with soups at pH 7, pH 8 and pH 9 (adjusted by trisodium phosphate) for whole bird bacteria counts. Tests at pH 8 were conducted for individual bacteria counts.
(§2) In general the tests involved normal processing of 56-day-old birds and immersing the carcasses first in a warm bath containing 10^4 per mL Escherichia coli, 10^4 per mL Salmonella enteritidis, 10^4 per mL Pseudomonas aeruginosa, 10^4 per mL Campylobacter jejuni, and 10^4 per mL spoilage bacteria each from […] strains (Listeria monocytogenes and Shigella sonnei). The carcasses were then immersed in a chill tank “soup”, containing normal organic fluids (blood, fat, skin, and meat particles) and containing the microbiocides on the test.
(§3) The bacteria stock solution used for this group of tests was prepared by growing each bacteria sample in the appropriate broth shown in Table 12. […] The containers were observed and not allowed to develop a heavy, cloudy visual appearance which would indicate that the growth had developed for too long a period. Thus the solutions had the appearance of only being foggy or somewhat unclear.
(§4) The procedure used for whole bird wash sampling was as follows: • 1. All samples were kept at ≦50 degrees Fahrenheit following collection. • 2. Microbiological analyses of samples began within 24 hours of sample collection. • 3. Information on the individual sample identification, date of collection, time of collection (phase during shift), treatment group and location of sample point were recorded on each sample bottle. • 4. At each defined sample time, carcasses were taken individually from the processing line wearing latex or rubber gloves. The gloves were rinsed with alcohol between each collection. • 5. Any excess fluid was drained off from the carcass. Each individual carcass was transferred to a sterile stomacher bag. • 6. To each carcass contained in the sterile stomacher bag, 400 mL of Butterfield's Phosphate Diluent (BPD) was added while making sure to pour the BPD into the inside of the carcass cavity. The carcass was rinsed inside and out with a rocking motion for one minute (ca. 35 RPM). This was best done by grasping the broiler carcass with one hand and the closed top of the bag with the other then rocking with a reciprocal motion in a 18-24 inch arc, assuring that all surfaces (interior and exterior of the carcass) were rinsed. • 7. The rinse solutions from each stomacher bag was transferred into the sample bottles, taking care to ensure that the information on the date of collection, time of collection (phase during shift), treatment group and location of sampler point matched that of the sample. • 8. Each bottle was sealed with parafilm and placed into a styrene container with crushed or dry ice or frozen freezer packs for overnight delivery to a testing laboratory. • 9. All filled styrene containers were held in a chilled (not below freezing) area until within 1 to 2 hours of courier collection for shipment.
(§5) In greater detail the trial events and experimental design used in this group of tests were as follows: • a) Test microorganisms used were: • Escherichia coli ATCC 11229 • Pseudomonas aeruginosa ATCC 15442 • Salmonella enteritidis ATCC 13076 • Shigella sonnei ATCC 9290 • Listeria monocytogenes ATCC 7644 • Campylobacter jejuni ATCC 29428 • b) Test Procedure: All test strains were grown individually at 35° C. for 24 hours in the media specified in Table 12. Cells were harvested by centrifugation at 10,000×g for 10 minutes and washed twice with Butterfield's Phosphate Buffer (BPB of pH 7.2). Cells were resuspended in BPB to obtain a cell suspension of approximately 1.0×10^8 CFU/mL for each microorganism. […]

[2] = tested on: Salmonella enteritidis ATCC 13076; settings: 25 birds per treatment, control 3969
Procedure: as §1, §2, §3, §4, §5

[3] = tested on: Listeria monocytogenes ATCC 7644; settings: 25 birds per treatment, control 2463
Procedure: as §1, §2, §3, §4, §5

[4] = tested on: Shigella sonnei ATCC 9290; settings: 25 birds per treatment, control 4551
Procedure: as §1, §2, §3, §4, §5

[5] = tested on: Campylobacter jejuni ATCC 29428; settings: 25 birds per treatment, control 1282
Procedure: as §1, §2, §3, §4, §5

[6] = tested on: Escherichia coli ATCC 11229; settings: 25 birds per treatment, control 3055
Procedure: as §1, §2, §3, §4, §5

In the case of `CC1(C)C(=O)N(Br)C(=O)N1Br` [DBDMH, 1,3-dibromo-5,5-dimethylhydantoin], the “average bacteria count per bird, P. aeruginosa” value ([1]; 10 ppm) is reported as 289 per bird, the “average bacteria count per bird, P. aeruginosa” value ([1]; 20 ppm) is reported as 9 per bird and the “average bacteria count per bird, S. enteritidis” value ([2]; 10 ppm) is reported as 560 per bird. For the same molecule, the “average bacteria count per bird, S. enteritidis” value ([2]; 20 ppm) was 10 per bird, the “average bacteria count per bird, L. monocytogenes” value ([3]; 10 ppm) was 262 per bird and the “average bacteria count per bird, L. monocytogenes” value ([3]; 20 ppm) was 6 per bird. The “average bacteria count per bird, S. sonnei” value ([4]; 10 ppm) was 456 per bird, the “average bacteria count per bird, S. sonnei” value ([4]; 20 ppm) was 12 per bird and the “average bacteria count per bird, C. jejuni” value ([5]; 10 ppm) was 183 per bird. The “average bacteria count per bird, C. jejuni” value ([5]; 20 ppm) was 15 per bird, the “average bacteria count per bird, E. coli” value ([6]; 10 ppm) was 357 per bird and the “average bacteria count per bird, E. coli” value ([6]; 20 ppm) was 4 per bird.
